The source of these data is patent US10815247B2, “Functionalized NANOLUC inhibitors” (PROMEGA CORPORATION, priority 2016, dated 2020).

Entries after “also recorded” stand apart in the source; their conditions may differ.

The first test deals with T1, NanoLuc (Oplophorus gracilirostris, UniProt Q9GV45, A31E/A60N/A81I/F95D/I117V/K70R/L54V/L99Q/M102K/N193R/P142E/Q151K/Q38R/Q45L/V71I/Y165I). Kind of test: Inhibitor IC50 determination.
T1 sequence (Q9GV45 28-196 with tags or gaps with the stated changes limits assumed): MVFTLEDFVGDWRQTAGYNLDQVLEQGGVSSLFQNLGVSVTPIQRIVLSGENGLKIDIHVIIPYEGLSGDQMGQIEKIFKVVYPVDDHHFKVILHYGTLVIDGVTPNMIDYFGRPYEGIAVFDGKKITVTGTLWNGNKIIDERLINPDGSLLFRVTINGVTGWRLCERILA
Details: not given
The class given is biochemical. How it is done:
The following example provides the IC50 values for the compounds disclosed herein. NANOLUC® enzyme was diluted to 0.4 ng/ml in CO2 independent media+10% FBS to make the detection reagent. A 3× dilution series of each inhibitor was then made in the detection reagent. A “no inhibitor” control was also made for each sample. 50 ul of each inhibitor dilution was mixed with 50 ul of NanoGlo® buffer containing 20 μM furimazine (final furimazine concentration is 10 μM, which is at Km.), and luminescence was measured. Each sample was normalized to the “no inhibitor” control. The IC50 values were then determined using GraphPad Prism (log[inhibitor] vs. normalized response).
The molecule `CCc1cccc(N(CC)C(=O)Cn2c(C(=O)N[C@H]3CC[C@H](C(=O)NCCCCCC(=O)OC)CC3)cc3ccccc32)c1` [JRW-0598, methyl 6-(trans-4-(1-(2-(ethyl(3-ethylphenyl)amino)-2-oxoethyl)-1H-indole-2-carboxamido)cyclohexane-1-carboxamido)hexanoate] returned a concentration for half-maximal inhibition (IC50) of 0.4 nM.

As for `CCc1cccc(N(CC)C(=O)Cn2c(C(=O)N[C@H]3CC[C@H](C(=O)NCCCCCC(=O)ON4C(=O)CCC4=O)CC3)cc3ccccc32)c1` [JRW-0604, 2,5-dioxopyrrolidin-1-yl 6-(trans-4-(1-(2-(ethyl(3-ethylphenyl)amino)-2-oxoethyl)-1H-indole-2-carboxamido)cyclohexane-1-carboxamido)hexanoate], the half-maximal inhibitory concentration (IC50) is 2.7 nM.

As for `CCc1cccc(N(CC)C(=O)Cn2c(C(=O)N[C@H]3CC[C@H](C(=O)NCCCCCC(=O)Oc4ccccc4)CC3)cc3ccccc32)c1` [JRW-0606, phenyl 6-(trans-4-(1-(2-(ethyl(3-ethylphenyl)amino)-2-oxoethyl)-1H-indole-2-carboxamido)cyclohexane-1-carboxamido)hexanoate], 4.1 nM corresponded to half-maximal inhibition (IC50). Same read-out and setting: the same measure for `CCN(C(=O)Cn1c(C(=O)N[C@H]2CC[C@H](C(=O)NCCCCCCCCNC(=O)c3ccc4c(c3)C(=O)OC43c4ccc(O)cc4Oc4cc(O)ccc43)CC2)cc2sccc21)c1cccc(C)c1` [JRW-0883]: 5.4 nM. The same measure, in the same setting: the result for `CCc1cccc(N(CC)C(=O)Cn2c(C(=O)N[C@H]3CC[C@H](C(=O)NCCCCCCCCNC(=O)CCc4ccc5n4[B-](F)(F)[N+]4=C(C)C=C(C)C4=C5)CC3)cc3ccccc32)c1` [JRW-0888, N-(trans-4-((8-(3-(5,5-difluoro-7,9-dimethyl-5H-5λ4,6λ4-dipyrrolo[1,2-c:2′,1′-f][1,3,2]diazaborinin-3-yl)propanamido)octyl)carbamoyl)cyclohexyl)-1-(2-(ethyl(3-ethylphenyl)amino)-2-oxoethyl)-1H-indole-2-carboxamide] reads 26 nM. In turn, `CCc1cccc(N(CC)C(=O)Cn2c(C(=O)N[C@H]3CC[C@H](C(=O)NCCCCCCNC(=O)CCOCCOCCNC(=O)c4ccc5c(c4)C4(OC5=O)c5ccc(N(C)C)cc5Oc5cc(N(C)C)ccc54)CC3)cc3ccccc32)c1` [JRW-0915, N-(trans-4-((1-(3′,6′-bis(dimethylamino)-3-oxo-3H-spiro[isobenzofuran-1,9′-xanthen]-6-yl)-1,11-dioxo-5,8-dioxa-2,12-diazaoctadecan-18-yl)carbamoyl)cyclohexyl)-1-(2-(ethyl(3-ethylphenyl)amino)-2-oxoethyl)-1H-indole-2-carboxamide] yielded a half-maximal inhibitory concentration (IC50) of 5.2 nM. As for `CCc1cccc(N(CC)C(=O)Cn2c(C(=O)N[C@H]3CC[C@H](C(=O)NCCCCCCCCNC(=O)CCOCCOCCNC(=O)c4ccc5c(c4)C4(OC5=O)c5ccc(N(C)C)cc5Oc5cc(N(C)C)ccc54)CC3)cc3ccccc32)c1` [JRW-0920, N-(trans-4-((1-(3′,6′-bis(dimethylamino)-3-oxo-3H-spiro[isobenzofuran-1,9′-xanthen]-6-yl)-1,11-dioxo-5,8-dioxa-2,12-diazaicosan-20-yl)carbamoyl)cyclohexyl)-1-(2-(ethyl(3-ethylphenyl)amino)-2-oxoethyl)-1H-indole-2-carboxamide], the IC50 amounted to 1.7 nM. The same measure, in the same setting: the result for `CCc1cccc(N(CC)C(=O)Cn2c(C(=O)N[C@H]3CC[C@H](C(=O)NCCCCCCCCNC(=O)CCC(=O)NCCC4=C5C=CC=[N+]5[B-](F)(F)n5c(C)cc(C)c54)CC3)cc3ccccc32)c1` [JRW-1081, N1-(2-(5,5-difluoro-1,3-dimethyl-5H-5λ4,6λ4-dipyrrolo[1,2-c:2′,1′-f][1,3,2]diazaborinin-10-yl)ethyl)-N4-(8-(trans-4-(1-(2-(ethyl(3-ethylphenyl)amino)-2-oxoethyl)-1H-indole-2-carboxamido)cyclohexane-1-carboxamido)octyl)succinamide] reads 6 nM.

The test is the same for the next values; noted with them: 0.4 ng/ml NANOLUC in CO2 independent media+10% FBS; final furimazine 10 μM; no pre-incubation noted; read-out: IC50.
For `CCN(C(=O)Cn1c(C(=O)N[C@H]2CC[C@H](C(=O)NCCCCCCCCNC(=O)c3ccc4c(c3)C(=O)OC43c4ccc(N)cc4Oc4cc(N)ccc43)CC2)cc2sccc21)c1cccc(C)c1` [JRW-0887], the half-maximal inhibitory concentration (IC50) is 6.3 nM.

Take `CCN(C(=O)Cn1c(C(=O)NC2CCC(C(=O)NCCCCCCCCNC(=O)CCC3=[N+]4C(=Cc5c(C)cc(C)n5[B-]4(F)F)C=C3)CC2)cc2sccc21)c1cccc(C)c1` (stereo not drawn) [JRW-0889, N-(trans-4-((8-(3-(5,5-difluoro-7,9-dimethyl-5H-5λ4,6λ4-dipyrrolo[1,2-c:2′,1′-f][1,3,2]diazaborinin-3-yl)propanamido)octyl)carbamoyl)cyclohexyl)-4-(2-(ethyl(m-tolyl)amino)-2-oxoethyl)-4H-thieno[3,2-b]pyrrole-5-carboxamide]: the concentration for half-maximal inhibition (IC50) is 280 nM. In the case of “N1-(2-(5,5-difluoro-1,3-dimethyl-5H-5λ4,6λ4-dipyrrolo[1,2-c:2′,1′-f][1,3,2]diazaborinin-10-yl)ethyl)-N4-(1-(trans-4-(1-(2-(ethyl(3-ethylphenyl)amino)-2-oxoethyl)-1H-indole-2-carboxamido)cyclohexyl)-1,10-dioxo-13,16-dioxa-2,9-diazaoctadecan-18-yl)succinamide [JRW-1082]”, the IC50 amounted to 3.3 nM. Same read-out and setting: the same measure for “N1-(2-(5,5-difluoro-1,3-dimethyl-5H-5λ4,6λ4-dipyrrolo[1,2-c:2′,1′-f][1,3,2]diazaborinin-10-yl)ethyl)-N4-(1-(trans-4-(1-(2-(ethyl(3-ethylphenyl)amino)-2-oxoethyl)-1H-indole-2-carboxamido)cyclohexyl)-1,12-dioxo-15,18-dioxa-2,11-diazaicosan-20-yl)succinamide [JRW-1083]”: 1.8 nM. Same read-out and setting: the result for “N-(trans-4-((1-(3′,6′-dihydroxy-3-oxo-3H-spiro[isobenzofuran-1,9′-xanthen]-5,6-yl)-1,11-dioxo-5,8-dioxa-2,12-diazaicosan-20-yl)carbamoyl)cyclohexyl)-1-(2-(ethyl(3-ethylphenyl)amino)-2-oxoethyl)-1H-indole-2-carboxamide [JRW-0921]” reads 1.1 nM; that for “N-(trans-4-((6-(3′,6′-diamino-3-oxo-3H-spiro[isobenzofuran-1,9′-xanthene]-5,6-carboxamido)hexyl)carbamoyl)cyclohexyl)-1-(2-(ethyl(3-ethylphenyl)amino)-2-oxoethyl)-1H-indole-2-carboxamide [JRW-0859]”, 2 nM; that for “N-(trans-4-((8-(3′,6′-diamino-3-oxo-3H-spiro[isobenzofuran-1,9′-xanthene]-5,6-carboxamido)octyl)carbamoyl)cyclohexyl)-1-(2-(ethyl(3-ethylphenyl)amino)-2-oxoethyl)-1H-indole-2-carboxamide [JRW-0886]”, 3.7 nM.

As for “N-(trans-4-((8-(4′,5′-dichloro-3′,6′-dihydroxy-2′,7′-dimethoxy-3-oxo-3H-spiro[isobenzofuran-1,9′-xanthene]-5,6-carboxamido)octyl)carbamoyl)cyclohexyl)-1-(2-(ethyl(3-ethylphenyl)amino)-2-oxoethyl)-1H-indole-2-carboxamide [JRW-0964]”, the half-maximal inhibitory concentration (IC50) worked out at 12 nM. Same read-out and setting: the same measure for “N-(trans-4-((8-(6-((Z)-2-((E)-3-(1,1-dimethyl-1,4,5,6-tetrahydro-3λ4-pyrrolo[3,2,1-ij]quinolin-2-yl)allylidene)-1-methyl-1,2,5,6-tetrahydro-4H-pyrrolo[3,2,1-ij]quinolin-1-yl)hexanamido)octyl)carbamoyl)cyclohexyl)-1-(2-(ethyl(3-ethylphenyl)amino)-2-oxoethyl)-1H-indole-2-carboxamide [JRW-0958]”: 16 nM.

A further test deals with T1, NanoLuc. Kind of test: Suicide inhibition: displacement of inhibitor by furimazine upon dilution (FIG. 7). The conditions noted are these: 10 μM Nluc + 10 μM inhibitor 30 minutes at RT, diluted to 10 pM, furimazine 10 uM.
Method: Following dilution, 50 ul of the dilution was combined with 50 ul of NanoGlo® assay buffer.
Following dilution, 50 ul of the dilution was combined with 50 ul of NanoGlo® assay buffer. Final furimazine concentration was 10 uM.
Regarding `CCc1cccc(N(CC)C(=O)Cn2c(C(=O)N[C@H]3CC[C@H](C(=O)NCCCCCC(=O)OC)CC3)cc3ccccc32)c1` [JRW-0598, methyl 6-(trans-4-(1-(2-(ethyl(3-ethylphenyl)amino)-2-oxoethyl)-1H-indole-2-carboxamido)cyclohexane-1-carboxamido)hexanoate], the “displacement of inhibitor by furimazine upon dilution” value (“displacement of inhibitor” for short) is listed as “slower”. In the case of `CCc1cccc(N(CC)C(=O)Cn2c(C(=O)N[C@H]3CC[C@H](C(=O)NCCCCCCCC(=O)ON4C(=O)CCC4=O)CC3)cc3ccccc32)c1` [JRW-0600, 2,5-dioxopyrrolidin-1-yl 8-(trans-4-(1-(2-(ethyl(3-ethylphenyl)amino)-2-oxoethyl)-1H-indole-2-carboxamido)cyclohexane-1-carboxamido)octanoate], the “displacement of inhibitor” value is on record as “not displaced” and the “reversibility of Nluc inhibition” value is on record as “irreversible inhibition; also recorded: irreversibly inhibit”.

On to `CCc1cccc(N(CC)C(=O)Cn2c(C(=O)N[C@H]3CC[C@H](C(=O)NCCCCCC(=O)ON4C(=O)CCC4=O)CC3)cc3ccccc32)c1` [JRW-0604, 2,5-dioxopyrrolidin-1-yl 6-(trans-4-(1-(2-(ethyl(3-ethylphenyl)amino)-2-oxoethyl)-1H-indole-2-carboxamido)cyclohexane-1-carboxamido)hexanoate], for which the “displacement of inhibitor” value is reported as “slower” and the “reversibility of Nluc inhibition” value is reported as “did not show irreversible inhibition”. Consider `CCc1cccc(N(CC)C(=O)Cn2c(C(=O)N[C@H]3CC[C@H](C(=O)NCCCCCC(=O)Oc4ccccc4)CC3)cc3ccccc32)c1` [JRW-0606, phenyl 6-(trans-4-(1-(2-(ethyl(3-ethylphenyl)amino)-2-oxoethyl)-1H-indole-2-carboxamido)cyclohexane-1-carboxamido)hexanoate], for which the “displacement of inhibitor” value is reported as “slower”. `CCc1cccc(N(CC)C(=O)Cn2c(C(=O)N[C@H]3CC[C@H](C(=O)NCCCCCCNC(=O)c4ccc5c(c4)C(=O)OC54c5ccc(OC(C)=O)cc5Oc5cc(OC(C)=O)ccc54)CC3)cc3ccccc32)c1` [JRW-0650, 5-((6-(trans-4-(1-(2-(ethyl(3-ethylphenyl)amino)-2-oxoethyl)-1H-indole-2-carboxamido)cyclohexane-1-carboxamido)hexyl)carbamoyl)-3-oxo-3H-spiro[isobenzofuran-1,9′-xanthene]-3′,6′-diyl diacetate]: the “displacement of inhibitor” value is “slower”.
